The source of these data is patent publication US4810818A, “Process for producing alpha-aspartyl-l-phenylalanine methyl ester having an improved solubility” (Toyo Soda Manufacturing Co., Ltd, priority 1986, dated 1989).

The conditions of data set [1]: as compared with the I type crystals; cited from earlier work.
A short description of data set [2]: Ratio of I type crystals by X-ray diffraction specific peaks with calibration curve. Type of data set: physicochemical. The settings on record: peaks at 2θ 4.4° (I) and 5.0° (II). Here is the method:
Then, the ratio of the I type crystals was determined by comparing the strength ratio of each sample with the calibration curve.

Data set [3] can be described thus: Solubility: duration till 1 g of Aspartame crystals in 500 ml distilled water was completely dissolved as visually observed. Type of data set: physicochemical. The settings on record: 1 g in 500 ml distilled water, 20° C., magnetic stirrer 200 r.p.m.; for Solubility (min.) (duration till completely dissolved): Table 2, dried at 50° C. then 70° C.; for Solubility (min) (duration till completely dissolved): Table 1. On the procedure: In the Examples, the solubility of Aspartame crystals was determined by measuring the duration till 1 g of Aspartame crystals which was added to 500 ml of distilled water at 20° C., followed by stirring (by a magnetic stirrer at 200 r.p.m.), was completely dissolved as visually observed.

For data set [4] the following is noted: cited from earlier work.
For data set [5] the following is noted: drying at a high temperature; part readily converted to a diketopiperadine derivative; cited from earlier work.
The nature of data set [6]: Crystal form conversion (I type to II type) on drying. The settings on record: irrespective of the drying method. Format: physicochemical.
The nature of data set [7]: Dispersibility and solubility in water (general statements). Format: physicochemical. The settings on record: as compared with the II type crystals.
Setting [8] is: Table 2, dried at 50° C. then 70° C.

The structures appear in SMILES notation. Peptide text beside a SMILES is read from it.

Consider `COC(=O)[C@H](Cc1ccccc1)NC(=O)[C@@H](N)CC(=O)O` [Aspartame II type crystals, α-L-aspartyl-L-phenylalanine methyl ester] (H-Asp-Phe-OMe), for which, in data set [1], the hygroscopicity result was “low hygroscopicity” and the storage stability entry is on record as “excellent storage stability”.
Regarding `COC(=O)[C@H](Cc1ccccc1)NC(=O)[C@@H](N)CC(=O)O` [Example 3, α-L-aspartyl-L-phenylalanine methyl ester] (H-Asp-Phe-OMe), the “Ratio of I type crystals (%)” value in data set [2] (setting [8]) worked out at 100%. For the same compound, the “Solubility (min.) (duration till completely dissolved)” value in data set [3] lay within 5 to 6 min.
Regarding `COC(=O)[C@H](Cc1ccccc1)NC(=O)[C@@H](N)CC(=O)O` [Example 5, α-L-aspartyl-L-phenylalanine methyl ester] (H-Asp-Phe-OMe), the “Ratio of I type crystals (%)” value in data set [2] (setting [8]) came out at 100%. For the same compound, in data set [3], the “Solubility (min.) (duration till completely dissolved)” value lay within 4 to 5 min.
With `COC(=O)[C@H](Cc1ccccc1)NC(=O)[C@@H](N)CC(=O)O` [Aspartame, α-L-aspartyl-L-phenylalanine methyl ester] (H-Asp-Phe-OMe), the “dispersibility and solubility in water” value in data set [4] was “poor dispersibility and solubility in water”. Besides, the “stability at a high temperature” value in data set [5] is “not stable at a high temperature”. Also, the “water content till which the I type crystal form is maintained” value in data set [6] is reported as “about 15 % by weight”.
For the compound `COC(=O)[C@H](Cc1ccccc1)NC(=O)[C@@H](N)CC(=O)O` [Example 2, α-L-aspartyl-L-phenylalanine methyl ester] (H-Asp-Phe-OMe), in data set [2] (setting [8]), the “Ratio of I type crystals (%)” value was 90%. For the same compound, the “Solubility (min.) (duration till completely dissolved)” value in data set [3] is 5 to 6 min.
For the compound `COC(=O)[C@H](Cc1ccccc1)NC(=O)[C@@H](N)CC(=O)O` [Comparative Example 1, α-L-aspartyl-L-phenylalanine methyl ester] (H-Asp-Phe-OMe), the “Ratio of I type crystals (%)” value in data set [2] (Table 1) amounted to 25%. In addition, the “Solubility (min) (duration till completely dissolved)” value in data set [3] was in the range of 13 to 14 min.
Turning to `COC(=O)[C@H](Cc1ccccc1)NC(=O)[C@@H](N)CC(=O)O` [I type crystals, α-L-aspartyl-L-phenylalanine methyl ester] (H-Asp-Phe-OMe), the “solubility, I type versus II type crystals” value in data set [7] is “far superior in the solubility to the II type crystals”.
For the compound `COC(=O)[C@H](Cc1ccccc1)NC(=O)[C@@H](N)CC(=O)O` [compound 3, α-L-aspartyl-L-phenylalanine methyl ester] (H-Asp-Phe-OMe), in data set [2] (setting [8]), the “Ratio of I type crystals (%)” value came to 51%. Also, the “Solubility (min.) (duration till completely dissolved)” value in data set [3] lay in the range of 15 to 16 min.
Regarding `COC(=O)[C@H](Cc1ccccc1)NC(=O)[C@@H](N)CC(=O)O` [Example 1, α-L-aspartyl-L-phenylalanine methyl ester] (H-Asp-Phe-OMe), the “Ratio of I type crystals (%)” value in data set [2] (Table 1) came out at 98%. Moreover, the “Solubility (min) (duration till completely dissolved)” value in data set [3] was in the range of 5 to 6 min.
Turning to `COC(=O)[C@H](Cc1ccccc1)NC(=O)[C@@H](N)CC(=O)O` [Example 4, α-L-aspartyl-L-phenylalanine methyl ester] (H-Asp-Phe-OMe), the “Ratio of I type crystals (%)” value in data set [2] (setting [8]) is reported as 98%. For the same compound, the “Solubility (min.) (duration till completely dissolved)” value in data set [3] lay in the range of 4 to 5 min.
For `COC(=O)[C@H](Cc1ccccc1)NC(=O)[C@@H](N)CC(=O)O` [compound 4, α-L-aspartyl-L-phenylalanine methyl ester] (H-Asp-Phe-OMe), in that order: 64% and 14 to 15 min.
For `COC(=O)[C@H](Cc1ccccc1)NC(=O)[C@@H](N)CC(=O)O` [compound 2, α-L-aspartyl-L-phenylalanine methyl ester] (H-Asp-Phe-OMe), in that order: 60% and 13 to 14 min.
Consider `COC(=O)[C@H](Cc1ccccc1)NC(=O)[C@@H](N)CC(=O)O` [compound 5, α-L-aspartyl-L-phenylalanine methyl ester] (H-Asp-Phe-OMe), for which the “Ratio of I type crystals (%)” value in data set [2] (setting [8]) is on record as 78%. For the same compound, the “Solubility (min.) (duration till completely dissolved)” value in data set [3] is 7 to 8 min.
